Laboratory results taken from patent US5443827A, “Fibrin-targeted inhibitors of thrombin” (President and Fellows of Harvard College, priority 1993, dated 1995).

Assays:
thrombin [1] = molecular target: T1, thrombin (Homo sapiens, UniProt P00734); details: r-Hirudin as obtained from Knoll AG; cited from earlier work
[2] = tested on: fibrin deposition on the surface of a clot suspended in human plasma; assay: Inhibition of thrombus growth in human plasma; type: biochemical
Method: The method of Runge (Runge et al., Biochemistry 27:1153-1157, 1988, herein incorporated by reference) was followed, with the following modifications. Fresh-frozen plasma obtained from 5 donors was pooled, aliquoted and refrozen. Before each experiment, plasma was ultracentrifuged at 30,000 rpm for 60 min in a Beckmann SW 40 rotor in order to obtain platelet-free plasma (platelet count less than 1,000 platelets/μl). Immediately before each experiment, the anti-thrombin activities of hirudin and hirudin conjugate were calibrated using the S-2238 assay (i.e., the inhibition of thrombin peptidase activity by hirudin and its conjugates was determined, and appropriate dilutions were made so that the inhibition of thrombin peptidase activity was identical for each sample). Platelet-free plasma clots were made by adding to plasma, in the following sequence: ^125 I-labelled human fibrinogen (20,000 cpm/ml plasma), 0.5M CaCl2 (final concentration 0.05M) and thrombin (0.5 NIH units/ml plasma). Immediately after the addition of thrombin, the solution was drawn into silastic tubing (i.d. 4 mm) and allowed to clot for 2 h at 37 ° C. The tubing was then cut into 1.8 cm sections yielding clots of approximately 0.2 ml. The clots were removed from the tubing, and each was placed in a plastic vial and washed three times with 2 ml 0.15M NaCl. The radioactivity level of each was then determined and only clots within 5% of the mean value were used for experiments.
(§1) After counting, clots were resuspended in 100 μl TBS (0.1M Tris, 0.1M NaCl, pH 7.4). Experiments were initiated by the addition of 100 μl hirudin or conjugate solution containing defined amounts of anti-thrombin activity. […] At predetermined intervals, clots were removed from the test tube, washed three times with 2 ml 0.15M NaCl and assayed for radioactivity. Clots incubated without thrombin inhibitor (NaCl-controls) often could not be quantitatively removed from the incubation vial because of complete clotting of the assay mixture. […]

thrombin [3] = molecular target: T1, thrombin; assay: β-Peptide assay (thrombin inhibition as a function of binding to immobilized β-peptide); type: biochemical; details: fitted parameter ± SD
Method: 96-well microtiter plates were coated overnight at 4° C. with β-peptide. 100 μl coating buffer (20 mM Tris, 50 mMNaCl, 1 mM CaCl2, 1 mM MgC2, pH 7.4) containing 0.005 mg β-peptide were applied to each well. After coating, the microtiter plate was first washed 5 times with coating buffer supplemented with 0.05% Tween 20 and then three times with water. Free binding sites were blocked overnight at 4° C. by the addition of 250 μl bovine serum albumin (2% w/v in coating buffer) per well. […]
After washing 7 times with modified coating buffer (20 mM Tris, 0.5 M NaCl2, 1 mM CaCl2, 1 mM MgCl2, 0.2% Tween 20, pH 7.4) and three times with water, 100 μl of assay buffer (20 mMNaHPO4, 0.15M NaCl, 0.1% BSA, pH 7.4) were applied per well and 20 μl (1.25 U/ml) of thrombin solution were allowed to incubate for 1 h at room temperature. Then 50 μl of chromogenic substrate (S-2238 at 0.83 mg/ml) were applied and after 20 minutes, the reaction was stopped by addition of 50 μl of 20% acetic acid, and the resulting absorption read at 405 nm. Hirudin activity was detected as inhibition of thrombin activity and was expressed as % inhibition of total thrombin activity applied. […]

[4] = tested on: fibrin formation on the surface of a plasma clot; assay: Inhibition of thrombus growth in a fibrinogen solution; type: biochemical, human; details: for 3 h; FIG. 4A
Method: The method of Runge (Runge et al., Biochemistry 27:1153-1157, 1988, herein incorporated by reference) was followed, with the following modifications. Fresh-frozen plasma obtained from 5 donors was pooled, aliquoted and refrozen. Before each experiment, plasma was ultracentrifuged at 30,000 rpm for 60 min in a Beckmann SW 40 rotor in order to obtain platelet-free plasma (platelet count less than 1,000 platelets/μl). Immediately before each experiment, the anti-thrombin activities of hirudin and hirudin conjugate were calibrated using the S-2238 assay (i.e., the inhibition of thrombin peptidase activity by hirudin and its conjugates was determined, and appropriate dilutions were made so that the inhibition of thrombin peptidase activity was identical for each sample). […] The radioactivity level of each was then determined and only clots within 5% of the mean value were used for experiments.
as §1, with “7.4).” for “7.4). Experiments were initiated by the addition of 100 μl hirudin or conjugate solution containing defined amounts of anti-thrombin activity.”

thrombin [5] = molecular target: T1, thrombin; assay: Fibrin-Sepharose assay (thrombin inhibition as a function of binding to immobilized fibrin); type: biochemical; details: 800 units applied
Method: This assay is as described by Bode et al., J. Biol. Chem. 262:10819-10823, 1987, herein incorporated by reference, with the following modifications. For the purposes of assaying targeted anti-thrombin activity, trace labeling of fibrin-monomer is not necessary. 200 μl fibrin-Sepharose were incubated for 2.5 h at room temperature with defined amounts (by the S-2238 assay) of hirudin or hirudin-59D8-conjugate (hirudin-59D8-IgG or, alternatively, hirudin-59D8-Fab') in 100 μl of buffer. After washing the fibrin-Sepharose three times with 3 ml 0.15M NaCl, 200 μl S-2238 assay buffer and 40 μl (0.05 U) thrombin solution (1.25 U/ml) were added and incubated for 1 h at room temperature. Subsequently 100 μl of chromogenic substrate S-2238 were added, and the reaction was stopped after 25 min by addition of 100 μl 20% acetic acid. After centrifugation (5 min, 1,000×g), absorption of the supernatant was read at 405 nm. Hirudin activity was again detected as inhibition of thrombin activity and was expressed as % of total thrombin activity applied. […]

hirudin
specific activity (thrombin [1]): 17,000 anti-thrombin units (ATU)/mg | fibrin deposition lower than NaCl control ([2]; at 10 ATU/ml, FIG. 6A): 17 µg | fibrin deposition lower than NaCl control ([2]; at 100 ATU/ml, p=0.0001): 112 µg | fibrin deposition compared with the mixture at 9 ATU/ml ([2]; hirudin at 44 ATU/ml, p=0,003, FIG. 7): lower | B1, ultimate thrombin inhibition (thrombin [3]; FIG. 2A): 4.3±0.5% | ultimate inhibition (B1) (thrombin [3]; FIG. 2B): 0% | concentration giving complete inhibition of fibrin formation [4]: 80 ATU/ml | thrombin inhibition (thrombin [5]): 32.3%
